Counter-ions that a name gives are not always drawn. Like-named read-outs stand apart in the source and are kept apart here.
Assays:
[1] = Dynamic Vapor Sorption (DVS) hygroscopicity; type: physicochemical; settings: from 0 to 90% RH at 25° C.
Method: Dynamic Vapor Sorption (DVS) was used to study hygroscopicity on Model Q5000 SA (TA Instruments, New Castle, DE). A sample (1-10 mg) was placed in an aluminum pan and loaded on the sample side of the twin pan balance. The water sorption and desorption were studied as a function of relative humidity (RH) at 25° C. in 10% RH increments from 0% RH to 90% RH and then back to 0%. […] Data analysis was performed using Universal Analysis 2000 Version 4.7A (TA Instruments, New Castle, DE).

[2] = Atropisomer interconversion detected by 19F-NMR in deuterated DMSO; type: physicochemical; settings: deuterated DMSO solution, deuterated DMSO at 25° C.
Method: Compound 1 has two restricted rotational axes, resulting in 4 atropisomers (see FIG. 1) that may be detected by ^19F-NMR.
^19F Nuclear Magnetic Resonance spectra were collected on a Varian 400-MR 400 MHz instrument with 7620AS sample changer. Some of the parameters were adjusted as follows: number of scans: 1; spin: 0 (off); steady state scans: 0 (off). Samples were prepared as a solution of 20 mg in 0.75 mL of dimethyl sulfoxide-d6. The time from solvent addition to end of data acquisition should be ≤5 minutes. Off-line analysis was conducted using MNova software.

SMILES	water uptake (DVS) [1]	half-life at 26.7 mg/mL ([2]; read-out: half-life of conversion from the major to the minor atropisomer for the biaryl rotation (converted))	half-life at 26.7 mg/mL ([2]; read-out: half-life of interconversion at the 2nd rotational axis)
Cc1cc(CC(=O)O)c(C(C)(C)CC(=O)N(c2nn(CC(F)(F)F)c3c(-c4ccc(C#CC(C)(C)S(C)(=O)=O)nc4[C@H](Cc4cc(F)cc(F)c4)NC(=O)Cn4nc(C(F)(F)F)c5c4C(F)(F)[C@@H]4C[C@H]54)ccc(Cl)c23)S(C)(=O)=O)c(OP(=O)(O)O)c1 [Compound 1 maleate]	about 2.5%	–	–
Cc1cc(CC(=O)O)c(C(C)(C)CC(=O)N(c2nn(CC(F)(F)F)c3c(-c4ccc(C#CC(C)(C)S(C)(=O)=O)nc4[C@H](Cc4cc(F)cc(F)c4)NC(=O)Cn4nc(C(F)(F)F)c5c4C(F)(F)[C@@H]4C[C@H]54)ccc(Cl)c23)S(C)(=O)=O)c(OP(=O)(O)O)c1 [Compound 1 succinate]	about 1.7%	–	–
Cc1cc(CC(=O)O)c(C(C)(C)CC(=O)N(c2nn(CC(F)(F)F)c3c(-c4ccc(C#CC(C)(C)S(C)(=O)=O)nc4[C@H](Cc4cc(F)cc(F)c4)NC(=O)Cn4nc(C(F)(F)F)c5c4C(F)(F)[C@@H]4C[C@H]54)ccc(Cl)c23)S(C)(=O)=O)c(OP(=O)(O)O)c1 [Compound 1, 2-(2-(4-(N-(4-chloro-7-(2-((S)-1-(2-((3bS,4aR)-5,5-difluoro-3-(trifluoromethyl)-3b,4,4a,5-tetrahydro-1H-cyclopropa[3,4]cyclopenta[1,2-c]pyrazol-1-yl)acetamido)-2-(3,5-difluorophenyl)ethyl)-6-(3-methyl-3-(methylsulfonyl)but-1-yn-1-yl)pyridin-3-yl)-1-(2,2,2-trifluoroethyl)-1H-indazol-3-yl)methylsulfonamido)-2-methyl-4-oxobutan-2-yl)-5-methyl-3-(phosphonooxy)phenyl)acetic acid]	–	~71.6 h	~0.117 h
Cc1cc(CC(=O)O)c(C(C)(C)CC(=O)N(c2nn(CC(F)(F)F)c3c(-c4ccc(C#CC(C)(C)S(C)(=O)=O)nc4[C@H](Cc4cc(F)cc(F)c4)NC(=O)Cn4nc(C(F)(F)F)c5c4C(F)(F)[C@@H]4C[C@H]54)ccc(Cl)c23)S(C)(=O)=O)c(OP(=O)(O)O)c1 [Compound 1, Material A]	about 4.6%	–	–
Cc1cc(CC(=O)O)c(C(C)(C)CC(=O)N(c2nn(CC(F)(F)F)c3c(-c4ccc(C#CC(C)(C)S(C)(=O)=O)nc4[C@H](Cc4cc(F)cc(F)c4)NC(=O)Cn4nc(C(F)(F)F)c5c4C(F)(F)[C@@H]4C[C@H]54)ccc(Cl)c23)S(C)(=O)=O)c(OP(=O)(O)O)c1 [Compound 1, crystalline Form III]	about 1.6%	–	–
Cc1cc(CC(=O)O)c(C(C)(C)CC(=O)N(c2nn(CC(F)(F)F)c3c(-c4ccc(C#CC(C)(C)S(C)(=O)=O)nc4[C@H](Cc4cc(F)cc(F)c4)NC(=O)Cn4nc(C(F)(F)F)c5c4C(F)(F)[C@@H]4C[C@H]54)ccc(Cl)c23)S(C)(=O)=O)c(OP(=O)(O)O)c1 [Compound 1, crystalline Form II]	about 1%	–	–
Cc1cc(CC(=O)O)c(C(C)(C)CC(=O)N(c2nn(CC(F)(F)F)c3c(-c4ccc(C#CC(C)(C)S(C)(=O)=O)nc4[C@H](Cc4cc(F)cc(F)c4)NC(=O)Cn4nc(C(F)(F)F)c5c4C(F)(F)[C@@H]4C[C@H]54)ccc(Cl)c23)S(C)(=O)=O)c(OP(=O)(O)O)c1 [Compound 1, crystalline Form I]	about 4%	–	–
Cc1cc(CC(=O)OC(C)(C)C)c(C(C)(C)CC(=O)N(c2nn(CC(F)(F)F)c3c(-c4ccc(C#CC(C)(C)S(C)(=O)=O)nc4[C@H](Cc4cc(F)cc(F)c4)NC(=O)Cn4nc(C(F)(F)F)c5c4C(F)(F)[C@@H]4C[C@H]54)ccc(Cl)c23)S(C)(=O)=O)c(OP(=O)(OC(C)(C)C)OC(C)(C)C)c1 [Compound 2, crystalline Form I]	about 2.7%	–	–

From patent publication US20250011352A1, “SOLID FORMS” (priority 2023, published 2025)
